These results are taken from patent US7629317B2, “Control of growth and repair of gastro-intestinal tissues by gastrokines and inhibitors” (The University of Chicago, priority 2001, dated 2009).

“Also recorded” adds a separate entry of the source. Where two headings read alike, the source gives them in different places.

For one assay, the system named is IEC-18 cells. As to the kind of experiment: Growth of confluent cultures of IEC-18 cells (cell count). The format is cell-based, rat. As to conditions: for EC50: read-out: half-maximal concentration (K1/2) for growth stimulation. How it is done: Confluent cultures of IEC-18 cells were prepared. One day later, medium was aspirated and replaced with 5 ml of DMEM containing CS (0.5%) and insulin, without (control) or with mitogenic peptide 58-99 (8 μg/ml). Sister plates receiving 1 ml medium and different amounts of peptide 67-85 were incubated at 1 hr at 38° C. on a CO2 incubator, and then an additional 4 ml of medium was added to each dish. Peptide 58-99 was added to 2 of the 4-sister plates at each concentration of peptide 67-85, and the number of cells was counted. […] Stimulation of cell growth by mitogenic peptide 58-99 was completely abolished by preincubation of cells with 0.25 μg/ml of peptide 67-85. […] Values for the number of cells per culture are shown relative to multiplication of cells exposed to the vehicle during the same period.
Urea (6 M) was employed to release proteins from the insoluble fraction solubilize rhAMP-18 containing the His6-tag (SEQ ID NO: 16), and make it available to bind to the Ni^2+-charged resin from which it was subsequently eluted with a gradient of imidazole (0 to 200 mM). The amount of eluted rhAMP-18 was measured using the BCA assay, and the appearance of a single band at the predicted size of 19-20 kD was confirmed by SDS-PAGE followed by immunoblotting. To determine if eluted rhAMP-18 renatured to assume a structure that was mitogenic, aliquots of the eluate (following removal of urea and imidazole by dialysis) were added to cultures of IEC-18 cells and the number of cells was counted 4 days later. […] AMP peptide 77-97 refers to the mature protein; same as peptide 97-117 of human precursor protein: Table 1. These observations indicate that biologically active recombinant human AMP-18 that can be utilized in diverse clinical situations is available. The mitogenic potency of rhAMP-18 is in the nanomolar range which would be expected for a native gastric cell growth factor that participates in the maintenance and repair of the stomach in vivo.
(§1) To characterize the capacity of gastric and intestinal cells to respond to AMP-18, AGS gastric adenocarcinoma cells, HAE human gastric antrum mucosa primary cultures transformed with SV40 large T antigen, rat diploid small intestinal epithelial cells of the IEC-6 (FIG. 15) and IEC-18 lines, NCI N-87 gastric carcinoma cells, and SK-GT5 gastroesophageal adenocarcinoma cells were studied; human WI-38 fibroblasts and HeLa cells served as non-GI control cell lines. Mitogenesis was assayed by performing cell counts 3 to 4 days after exposing cells to the agent of interest, trypsinizing the culture to prepare single cells, and confirming this while counting them in a hemocytometer.

The test system of the next assay is AGS cells. As to the kind of experiment: Growth of gastric epithelial AGS cells (cell count four days later). The format is cell-based, human. As to conditions: peptide 77-97 8 μg/ml, EGF 50 ng/ml at saturating doses. How it is done:
as §1

The test system of a further assay is IEC-6 cells. Briefly: Growth of intestinal epithelial IEC-6 cells (cell count). The format is cell-based, rat. How it is done:
IEC-6 cells were grown in 60-mm dishes. […] Values are means±SE for 3 cultures.
as §1

The subject of assay [1] is HAE cells. As to the kind of experiment: Growth of human antrum epithelial (HAE) cells (cell count 4 days later). The format is cell-based. As to conditions: peptide 77-97 8 μg/ml, EGF 50 ng/ml, 4 days. How it is done:
(§2) To measure growth (left panel), HAE cells were plated in 60-mm dishes. Peptide 77-97 (8 μg/ml), or EGF (50 ng/ml), or both were added to the medium and the number of cells counted 4 days later. […] Values are means±SE for 3 cultures. To measure migration (right panel), cells were grown in 60-mm dishes to prepare a confluent monolayer. The medium was aspirated and replaced with fresh medium containing 0.01% calf serum (CS). The monolayer was mechanically wounded by scraping with a razor blade. Detached cells were removed by aspirating medium, and rinsing the remaining cells twice with fresh medium containing 0.01% CS. Fresh medium (5 ml) containing CS (0.01%) and insulin (100 U/L) was added to wounded cultures. Either peptide 77-97 (8 μg/ml), EGF (50 ng/ml), or both were added to duplicate cultures. Migration was assessed at 24, 48 and 72 hr after wounding by measuring the distance (in mm) that cells had migrated from the wound edge using a microscope eyepiece reticle (10-mm long; 0.1-mm markings). Migrating cells at 12 randomly chosen sites along a 0.25-mm stretch of the wound edge were measured at 40-fold magnification. Migration at 2 different sites was measured for each of 2 separate wounds made in each culture. Values are the mean distance cells moved into the denuded area from the edge of 4 different wounds in 2 cultures±SE.
as §1

For assay [2], the system named is HAE cells. Briefly: Wound restitution (migration) of scrape-wounded HAE cell monolayers. The format is cell-based, human. The note with it: peptide 8 μg/ml, EGF 50 ng/ml; 24-72 hr. How it is done: as §2
Confluent monolayer cultures were mechanically wounded by scraping with a razor blade, and the distance that cells migrated from the wound edge was measured using a microscope eyepiece reticle.

In a further assay the test system is MDCK cells. Briefly: Transepithelial electrical resistance (TER) of MDCK cell monolayers. The format is cell-based. As to conditions: monochloramine 0.1 mM, 90 min; EGF 50 ng/ml. How it is done: Monolayer cultures of MDCK cells were grown on permeable polycarbonate filters (0.4-μm pore size) (Transell) in DMEM containing FBS (2%) without (control) or with peptide 77-97 (8 μg/ml) for 8 days. TER was measured 24 hr after the cells were plated, and at specified times thereafter using an epithelial volt-ohm meter (EVOM, Millipore). Following each measurement, medium containing FBS without or with peptide was changed (0, 48, and 144 hr), and additional peptide 77-97 (8 μg/ml) was added at 30 and 72 hr. At 72 hr, TER in cultures that received peptide 77-97 was twice as high as in control cultures. Values are means for 3 cultures; variance is <10% of the mean. TER was measured from 3 different areas on the filter.
(§3) Panel A: When a stable TER was reached (330 Ω·cm^2) in MDCK cell monolayers the medium was changed to DMEM containing FBS (0.2%), and either peptide 77-97 (8 μg/ml) or EGF (50 ng/ml). After 18 hr, peptide 77-97 or EGF were added to the specified wells. One hour later monochloramine (0.1 mM), like the other agents, was added to the apical and basal compartments of the Transwell. […] Panels B, C: Caco2/bbe (C2) subclone monolayers were grown on collagen-coated polycarbonate filters until a stable TER was reached (225 Ω·cm^2). Spent medium was replaced with fresh medium containing FBS (0.1%) alone or with peptide 77-97 (8 μg/ml). After 18 hr, monochloramine (0.3 mM, B) or indomethacin (0.1 mM, C) was added to both compartments of the Transwell. At time 0, cultures received either vehicle (control), vehicle plus oxidant or indomethacin, or peptide 77-97 and oxidant or indomethacin. TER of injured cultures treated with vehicle decreased by ˜35% at 90 min, whereas peptide-treated cultures declined ˜10%.

Assay [3] has as its system occludin, ZO-1, ZO-2, claudin-5, E-cadherin, JAM. Briefly: Accumulation of tight and adherens junction proteins in C2 cells (immunoblot of insoluble fraction, confocal microscopy). The format is cell-based, human. The note with it: 8 hr. How it is done:
To find out how the peptide exerts its cytoprotective effect, C2 cell monolayers were treated with AMP peptide, and oxidant injury was induced with monochloramine 18 hours later. Changes in the levels of specific tight junction (TJ) proteins were checked. Cells were lysed, and proteins of the insoluble/particulate fraction were studied by immunoblotting. […] This observation represents the first evidence that AMP peptide enhances accumulation of specific TJ proteins in colonic epithelial cells. […] To carry out this experiment, C2 cells were exposed to AMP peptide for different periods of time, the NP-40-insoluble fraction was obtained, Western blots were prepared, and the amount of each immunoreactive protein was quantified. A 65% increase in immunoreactivity of each protein compared to control was detected for occludin after 2 hr, and for ZO-1 at 8 hr. Hsc73, which is constitutively expressed in these cells, was not altered by exposure to AMP peptide for up to 18 hr.
Confluent monolayers of C2 cells were treated with AMP peptide or vehicle for 8 hr. Cells were then collected, proteins in the NP-40-insoluble fraction were separated by SDS-PAGE, immunoblots were prepared, and the relative amounts of immunoreactive proteins were compared by densitometric analysis. […] These changes appear relatively specific for occludin, ZO-1, ZO-2, claudin-5, E-cadherin, and JAM because they were not observed for several other proteins localized in the TJ (claudin-1, claudin-2), adherens junction (β-catenin), plasma membrane (Na-K-2Cl cotransporter, α or β subunit of Na-K-ATPase), or cytosol (Rho A, hsc73).
To better understand the mechanism(s) by which AMP peptide enhances accumulation of TJ-associated proteins, experiments were performed to determine whether the peptide exerted its effect at the apical or basolateral surface of C2 cells. Monolayers of C2 cells were grown on Transwell filters, AMP peptide (8:g/ml) was added to the apical or basolateral compartment of the Transwell, and cells were harvested 8 hr later. The NP-40-insoluble fraction was obtained, its proteins separated, and immunoblots were prepared.
(In western blotting, separated proteins are transferred to a membrane and probed.)

For the next assay, the system named is NCI N-87 cells. As to the kind of experiment: Growth of NCI N-87 gastric carcinoma cells. The note with it: concentration-dependent. The format is cell-based. How it is done: as §1
The next assay has as its system SK-GT5 cells. As to the kind of experiment: Growth of SK-GT5 gastroesophageal adenocarcinoma cells. The format is cell-based. As to conditions: concentration-dependent. How it is done: as §1
The next assay concerns Caco2/bbe (C2) cells. As to the kind of experiment: Transepithelial electrical resistance (TER) of Caco2/bbe (C2) cell monolayers after injury. The format is cell-based, human. The note with it: monochloramine 0.3 mM, 45 min; rhAMP-18 100 nanomolar or peptide 3.7 micromolar pre-treatment; oxidant alone ~35%. How it is done: as §3
C2 cell monolayers were grown in DMEM containing FBS (5%) and transferrin (10 μg/ml) on collagen-coated polycarbonate filters until a stable TER was reached (225 Ωcm^2). At time 0, cells were exposed to no DSS (control), or DSS (4%) in the upper compartment of the Transwell. AMP peptide 77-97 (8 μg/ml) was added to the upper and lower compartments of the Transwell 1 day prior to the addition of DSS at time 0. TER of DSS-injured cultures treated with vehicle decreased by ˜70% at 45 min, whereas peptide-treated cultures declined ˜10% at that time. […] Values are means for ≧6 cultures.
Confluent C2 cell monolayers were prepared on Transwells until a stable TER was established. Medium was replaced with fresh medium containing FBS (0.1%) alone (control), or with either rhAMP-18 (100 nanomolar) or peptide 77-97 (3.7 micromolar). After 18 hr, monochloramine (0.3 mM) was added to both compartments of the Transwell, and cultures received either vehicle (control), vehicle plus oxidant, rhAMP-18 and oxidant, or peptide 77-97 and oxidant, after which TER was measured.
To determine whether AMP peptide could speed recovery of TER after DSS-induced colonic cell injury, a highly sought-after functional characteristic of an agent designed to treat IBD, C2 cell monolayers were exposed to DSS (5%) for 10 min which reduced TER to 33±6% of the control value (FIG. 29, left panel). DSS was removed by aspirating the medium and replacing it with fresh medium. AMP peptide 77-97 (8 μg/ml) or vehicle was added to the culture medium, and TER was measured 18 hr later. In the presence of the vehicle, TER increased from 33% to 66±7% of the control value, whereas cells exposed to AMP peptide reached a value 112±4% of control.
To determine if the cytoprotective effect of AMP peptide is mediated at the level of the actin cytoskeleton, C2 cell monolayers were exposed to cytochalasin D, an agent known to disrupt actin filaments and compromise barrier function (Madara et al., 1986).
To determine if AMP peptide could play a cytoprotective role in GDS, a study was carried out in C2 cell monolayers that were exposed to the PA-I lectin. […] Next the effect of AMP peptide was studied in the mouse model of P. aeruginosa-induced-GDS (Laughlin et al., 2000) using female Balb/c mice subjected to 30% hepatectomy, injection of a solution of living P. aeruginosa into the cecum, and food deprivation postoperatively. All 8 of the mice survived surgery.

Assay [4] deals with stomach and intestinal epithelial cells. As to the kind of experiment: Concentrations at which gastric peptide mediators exert their effects in culture. The format is cell-based.

For the molecule “EGF: polypeptide mitogen used for comparison at 50 ng/ml [reference compound]”, the “increase in cell number” value in the assay with IEC-18 cells (3 days, peptide 58-99 8 μg/ml, EGF 50 ng/ml, vehicle 290%) stood at 402%. Further, the “growth stimulation of AGS cells (in words)” value in the assay on AGS cells was “stimulated growth; also recorded: mitogenic”. Also, the “growth stimulation of IEC-6 cells (in words)” value in the assay with IEC-6 cells is “stimulated”. The “proliferation of HAE cells (in words)” value with HAE cells [1] was “stimulated proliferation”. In addition, the “migration from the wound edge compared with vehicle” value in the assay with HAE cells [2] is reported as “stimulated cell movement”. Also, in the assay with MDCK cells, the “loss of TER after oxidant exposure” value is given as 35-40%. Also, the “accumulation of occludin and ZO-1 (specificity)” value in assay [3] (peptides 8 μg/ml, EGF 50 ng/ml) is reported as “not replicated”. In the assay with NCI N-87 cells, the “growth of NCI N-87 cells” value is “stimulated”. Moreover, in the assay with SK-GT5 cells, the “growth of SK-GT5 cells” value was “stimulated”.

B1: rhAMP-18: recombinant human AMP-18 with N-terminal His6-tag replacing the signal peptide, expressed in E. coli (SEQ ID NO: 27) (protein)
chain: MRGSHHHHHHGSNYNIDVNDDNNNAGSGQQSVSVNNEHNVANVDNNNGWDSWNSIWDYGNGFAATRLFQKKTCIVHKMKKEVMPSIQSLDALVKEKKLQGKGPGGPPPKGLMYSVNPNKVDDLSKFGKNIANMCRGIPTYMAEEMQEASLFFYSGTCYTTSVLWIVDISFCGDTVEN
modifications: N-terminal His6 tag
B1: the “concentration of maximal mitogenic effect” value in the assay on IEC-18 cells (FIG. 18) was 5 nM. Moreover, the “growth stimulation of IEC-18 cells (in words)” value with IEC-18 cells (added alone, peptides up to 8 μg/ml) was “stimulates cell proliferation to the same maximal extent”. The EC50 is ~30 nM in the assay on IEC-18 cells (confluent IEC-18 cultures, FIG. 13) and ~5 nM in the assay on IEC-18 cells (recently purified rhAMP-18, FIG. 18). Also, the “decline in TER after monochloramine” value with Caco2/bbe (C2) cells is ~10%. Also, in [3] (100 nanomolar, laser densitometry), the “immunoreactive ZO-1 and occludin versus vehicle-treated cells” value is reported as “about two-fold”. The “concentrations at which physiological effects can occur” value in [4] is given as < 50 nM.
